Tests used:
Septoria nodorum = test: leaf disk assay, Septoria nodorum (wheat glume blotch), preventive; type: in vivo; conditions: for Efficacy (%): wheat leaf segments, four days after inoculation

Structure (SMILES): CC#CC(C)(C)NC(=O)C(Oc1cc(Br)c2ncc(Br)cc2c1)SC (stereo not drawn) [2 (Table 23), reference compound]
- Efficacy (%) (Septoria nodorum; Concentration 60 ppm): 0%
- Efficacy (%) (Septoria nodorum; Concentration 200 ppm): 0%

Structure (SMILES): CC#CC(C)(C)NC(=O)C(Oc1cc(Br)c2ncc(I)cc2c1)SC (stereo not drawn) [2(5), 2-(8-bromo-3-iodo-quinolinyl-6-oxy)-2-methylthio-N-(2-methylpent-3-yn-2-yl) acetamide]
- Efficacy (%) (Septoria nodorum; Concentration 60 ppm): 80%
- Efficacy (%) (Septoria nodorum; Concentration 200 ppm): 100%
- fungicidal activity against Septoria nodorum compared with the compound from the state of the art (Septoria nodorum; both application rates (200 and 60 ppm)): substantially better fungicidal activity
- melting point: 161 to 162 °C

— patent US8440595B2, “Fungicides” (priority 2007, dated 2013)
